From patent US8637537B2, “Serine/threonine kinase inhibitors” (Genentech, Inc., priority 2011, dated 2014) come the findings set out here.

Test [1] has as its target T1, human recombinant GST-PAK1-KD protein (Homo sapiens, UniProt Q13153).
T1 construct: residues #249-545 of human PAK1, UniProtKP/Swiss Q13153; His6 (N); made in house; host or cells: Sf9 insect cells, pAcGP67 baculovirus expression vector
As to the kind of experiment: GST-PAK1-KD (kinase domain) biochemical assay, microfluidic mobility shift.

Test [2] deals with group I PAKs (PAK1-3) in EBC1 cells, MEK1 phosphorylation at S298. As to the kind of experiment: Cellular PAK assay: MEK1 (S298) phosphorylation in EBC1 cells, HTRF. The format is cell-based. To be noted: Homo sapiens, EBC-1, 2 h treatment, Example 66. As to the method:
Group I PAKs (PAK1-3) are activated upon binding to the Rho GTPases, Rac1 and Cdc42. […] The inhibition of group I PAKs in EBC1 cells is assessed by detecting changes in the level of MEK1 phosphorylation at S298 using homogenous time-resolved fluorescence (HTRF). […] Following inhibitor treatment, cells were lysed with 25 μL of 1× cellular kinase lysis buffer (Cisbio) containing 1× cellular kinase blocking reagent (Cisbio). Cellular lysis was carried out at 4° C. for 2 h with constant shaking before lysate (16 μL) was transferred to white 384-well ProxiPlates™ (Perkin Elmer).
(Time-resolved FRET reads energy transfer from a long-lived donor to a nearby acceptor.)

Setting [3] is: GST-PAK1-KD Inhibition Assay - Example 65, read-out: PAK1 inhibition Ki.
Where [4] appears, read: Table II, PAK1 Ki class, read-out: Ki.
Setting [5] is: Table I, PAK1 Ki class, read-out: Ki.

Where two headings read alike, the source gives them in different places.

T1 sequence (Q13153 249-545): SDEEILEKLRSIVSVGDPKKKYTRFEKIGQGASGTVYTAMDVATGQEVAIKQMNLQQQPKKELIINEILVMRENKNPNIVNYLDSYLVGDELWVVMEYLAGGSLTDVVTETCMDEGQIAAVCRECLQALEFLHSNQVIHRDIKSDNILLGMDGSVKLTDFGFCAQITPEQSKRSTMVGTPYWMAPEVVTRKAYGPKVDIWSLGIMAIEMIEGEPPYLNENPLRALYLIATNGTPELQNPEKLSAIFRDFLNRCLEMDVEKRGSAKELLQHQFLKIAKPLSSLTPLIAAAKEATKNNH

Take `COCCN(Cc1cc(F)cc2[nH]ncc12)c1nccc(Nc2cc(C3CC3)[nH]n2)n1` [II-94, N^4-(5-cyclopropyl-1H-pyrazol-3-yl)-N^2-((6-fluoro-1H-indazol-4-yl)methyl)-N^2-(2-methoxyethyl)pyrimidine-2,4-diamine]: the Ki in test [1] (setting [3]) is 36.8 nM; in test [1] (setting [4]), below 50 nM. The same compound gave an IC50 in test [2] of 64.1 nM.
As to `c1cc(CNc2nccc(Nc3cc(C4CC4)[nH]n3)n2)c2nc[nH]c2c1` [I-39, N^2-((1H-benzo[d]imidazol-4-yl)methyl)-N^4-(5-cyclopropyl-1H-pyrazol-3-yl)pyrimidine-2,4-diamine], the inhibition constant (Ki) in test [1] (setting [3]) was 74.7 nM; in test [1] (setting [5]), 50 to 250 nM. Moreover, inhibition in test [2] was half-maximal at 205 nM (IC50).
As to `CCN(Cc1ccc2[nH]cnc2c1Cl)c1nccc(Nc2cc(C(C)C)[nH]n2)n1` [II-11, N^2-((4-Chloro-1H-benzo[d]imidazol-5-yl)methyl)-N^2-ethyl-N^4-(5-isopropyl-1H-pyrazol-3-yl)pyrimidine-2,4-diamine], the Ki in test [1] (setting [3]) was 1.6 nM; in test [1] (setting [4]), below 50 nM. The IC50 in test [2] amounted to 43 nM.
The like results for `Fc1cc(CN(CCN2CCCC2)c2nccc(Nc3cc(C4CC4)[nH]n3)n2)c2cn[nH]c2c1` [II-59, N^4-(5-cyclopropyl-1H-pyrazol-3-yl)-N^2-((6-fluoro-1H-indazol-4-yl)methyl)-N^2-(2-(pyrrolidin-1-yl)ethyl)pyrimidine-2,4-diamine] were, in that order, 6 nM, below 50 nM and 257 nM.
As to `C[C@H](Nc1nccc(Nc2cc(C3CC3)[nH]n2)n1)c1ccc2[nH]ccc2c1` [I-8, (S)—N^2-(1-(1H-indol-5-yl)ethyl)-N^4-(5-cyclopropyl-1H-pyrazol-3-yl)pyrimidine-2,4-diamine], the Ki in test [1] (setting [3]) is 15.1 nM; in test [1] (Ki, Table I, PAK1 Ki class), below 50 nM. In addition, in test [2], half-maximal inhibition (IC50) was put at 133 nM.
With `CCOc1cc(Nc2ccnc(N(C)Cc3ccc4[nH]cnc4c3Cl)n2)n[nH]1` [II-33, N^2-((4-Chloro-1H-benzo[d]imidazol-5-yl)methyl)-N^4-(5-ethoxy-1H-pyrazol-3-yl)-N^2-methylpyrimidine-2,4-diamine], the Ki in test [1] (setting [3]) was 97.9 nM; in test [1] (setting [4]) it was 50 to 250 nM. The midpoint of inhibition in test [2], the IC50, lay at 648 nM.
The like results for `COCCc1cc(Nc2ccnc(N(C)Cc3ccc4[nH]cnc4c3Cl)n2)n[nH]1` [II-102, N^2-((4-chloro-1H-benzo[d]imidazol-5-yl)methyl)-N^4-(5-(2-methoxyethyl)-1H-pyrazol-3-yl)-N^2-methylpyrimidine-2,4-diamine] were, in that order, 63.3 nM, 50 to 250 nM and 1500 nM.
In the same order, the values of `CN(C)CCN(Cc1cc(F)cc2[nH]ncc12)c1nccc(Nc2cc([C@@H]3C[C@@H]3F)[nH]n2)n1` [II-73, N^2-(2-(dimethylamino)ethyl)-N^2-((6-fluoro-1H-indazol-4-yl)methyl)-N^4-(5-((1S,2S)-2-fluorocyclopropyl)-1H-pyrazol-3-yl)pyrimidine-2,4-diamine] are 13 nM, below 50 nM and 419 nM.
The like results for `CCN(Cc1ccc2[nH]cnc2c1Cl)c1nccc(Nc2cc([C@@H]3C[C@@H]3F)[nH]n2)n1` [II-51, N^2-((4-chloro-1H-benzo[d]imidazol-5-yl)methyl)-N^2-ethyl-N^4-(5-((1S,2S)-2-fluorocyclopropyl)-1H-pyrazol-3-yl)pyrimidine-2,4-diamine] were, in that order, 2.5 nM, below 50 nM and 66.1 nM.
Turning to `Clc1c(CNc2nccc(Nc3cc(C4CCCO4)[nH]n3)n2)ccc2[nH]cnc12` (stereo not drawn) [I-109, N^2-((4-chloro-1H-benzo[d]imidazol-5-yl)methyl)-N^4-(5-(tetrahydrofuran-2-yl)-1H-pyrazol-3-yl)pyrimidine-2,4-diamine], the Ki in test [1] (setting [3]) was 27.5 nM; in test [1] (setting [5]), below 50 nM. In test [2], this compound yielded an IC50 of 786 nM.
Regarding `CN(Cc1ccc2[nH]cnc2c1Cl)c1nccc(Nc2cc(C(F)F)[nH]n2)n1` [II-81, N^2-((4-chloro-1H-benzo[d]imidazol-5-yl)methyl)-N^4-(5-(difluoromethyl)-1H-pyrazol-3-yl)-N^2-methylpyrimidine-2,4-diamine], the Ki in test [1] (setting [3]) was 19.7 nM; in test [1] (setting [4]), below 50 nM. The compound further displayed an IC50 in test [2] of 235 nM.
The like results for `CC(CO)N(Cc1cc(F)cc2[nH]ncc12)c1nccc(Nc2cc(C3CC3)[nH]n2)n1` (stereo not drawn) [II-56, 2-((4-((5-cyclopropyl-1H-pyrazol-3-yl)amino)pyrimidin-2-yl)((6-fluoro-1H-indazol-4-yl)methyl)amino)propan-1-ol] were, in that order, 4.2 nM, below 50 nM and 70.8 nM.
Regarding `C[C@H](Nc1nccc(Nc2cc(CC3CC3)[nH]n2)n1)c1ccc2[nH]cnc2c1` [I-45, (S)—N^2-(1-(1H-benzo[d]imidazol-5-yl)ethyl)-N^4-(5-(cyclopropylmethyl)-1H-pyrazol-3-yl)pyrimidine-2,4-diamine], the Ki in test [1] (setting [3]) was 41 nM; in test [1] (setting [5]) it was below 50 nM. This compound also showed a 50% inhibitory concentration (IC50) in test [2] of 1200 nM.

Usually Ki stands for a dissociation constant, usually derived from enzyme kinetics or from competition with a known ligand. For orientation: IC50 means the midpoint of a concentration-inhibition curve.
